Test results from PMC12693419, “Design, Synthesis, Biological Evaluation, and In Silico Studies of Novel Multitarget Cinnamic Acid Hybrids” (Molecules, 2025).
Like-named read-outs stand apart in the source and are kept apart here.

What was measured:
[1] = target: T1, ovine COX-2 (Ovis aries, UniProt P79208); assay: In vitro inhibition of ovine cyclooxygenase-2
T1 sequence (P79208 17-603): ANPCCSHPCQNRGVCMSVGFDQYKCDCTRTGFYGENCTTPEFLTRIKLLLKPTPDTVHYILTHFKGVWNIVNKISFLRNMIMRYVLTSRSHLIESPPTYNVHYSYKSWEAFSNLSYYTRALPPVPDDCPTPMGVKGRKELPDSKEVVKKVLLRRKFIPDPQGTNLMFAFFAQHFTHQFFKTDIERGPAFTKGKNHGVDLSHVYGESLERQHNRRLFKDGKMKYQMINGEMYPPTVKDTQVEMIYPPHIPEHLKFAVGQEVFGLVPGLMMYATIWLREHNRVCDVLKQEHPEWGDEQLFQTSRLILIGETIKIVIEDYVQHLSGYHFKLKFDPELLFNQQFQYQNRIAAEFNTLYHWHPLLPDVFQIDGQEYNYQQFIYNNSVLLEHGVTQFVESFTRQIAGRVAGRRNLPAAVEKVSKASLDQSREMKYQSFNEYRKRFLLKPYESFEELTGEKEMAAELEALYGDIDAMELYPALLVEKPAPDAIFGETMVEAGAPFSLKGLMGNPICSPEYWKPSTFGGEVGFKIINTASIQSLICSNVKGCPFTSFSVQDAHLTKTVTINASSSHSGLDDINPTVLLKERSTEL
Experimental: In order to prevent this in the in vitro experiment used for testing COX inhibition activity of the new molecules, a co-substrate like N,N,N′,N′-tetramethyl-p-phenylenediamine (TMPD) is included, as it undergoes co-oxidation by PGG2. The oxidized TMPD has a maximum absorbance at 590 nm. […] To ensure maximum enzyme activity, heme is added to the reaction mixture during the in vitro assay for ovine COX-2 inhibition and COX-1 inhibition [63].
The in vitro COX-2 inhibitory activity was assessed using arachidonic acid (AA) as a substrate and N,N,N′,N′-tetramethyl-p-phenylenediamine (TMPD) as a co-substrate in a Tris-HCl buffer (pH 8.5), following the reported method [89]. To the test tube, 10 µL of the compound dissolved in DMSO was added to a mixture containing 730 µL of Tris-HCl buffer (pH 8.5), 50 µL of heme, 10 µL of COX-2 enzyme, and 100 µL of TMPD. The absorbance was measured at 590 nm. […] A blank determination was conducted as a negative control.

[2] = In vitro determination of NO release with Griess reagent; details: 100 μM, L-cysteine, pH 7.4, 37 °C, 60 min
Text: This assay evaluates the ability of nitrate esters to release nitric oxide (NO). First, sodium nitroprusside (SNP) reacts with the thiol compound, cysteine, which serves as a reducing agent (Scheme 5). The thiol donates electrons, facilitating the breakdown of the nitroprusside complex. Afterwards, the reaction leads to the formation of intermediate complexes, such as nitrosothiol species and the decomposition of these intermediates results in the release of nitric oxide (NO). According to the literature, measurements are conducted both in the presence and absence of the thiol agent, cysteine. No significant difference was observed between the two experimental conditions, and the results were reproducible. Sodium nitroprusside (SNP) was used as the reference compound [65].
The compounds (from a 10 mM stock solution in DMSO, final concentration 100 μM) are added (20 μL) to each test tube. Then, 2 mL of phosphate buffer solution (pH 7.4) is added. L-cysteine, used as the thiol agent, is added to the mixture at a final concentration of 0.5 mM. The solution is incubated at 37 °C for 60 min, after which 1 mL is removed and mixed with 250 μL of Griess reagent (4 g sulfanilamide, 0.2 g N-(1-naphthyl)-ethylenediamine dihydrochloride, and 10 mL of H3PO4 solution, final volume adjusted to 100 mL). The mixture is allowed to stand for 10 min at room temperature, and the absorbance of the produced compound is measured at 540 nm. Sodium nitroprusside (SNP) is used as the reference compound. The results are presented as the release of NO2^− (% NO2^− (mol/mol)) induced by the compounds in the presence of L-cysteine (Table 6).

[3] = target: T2, bovine serum albumin (Bos taurus, UniProt P02769); assay: In vitro inhibition of albumin denaturation; details: heat denaturation, 60 °C 10 min
T2 construct: bovine serum albumin solution (fraction V); purchased Merck and Sigma-Aldrich; host or cells: bovine serum (fraction V)
T2 sequence (P02769 25-607): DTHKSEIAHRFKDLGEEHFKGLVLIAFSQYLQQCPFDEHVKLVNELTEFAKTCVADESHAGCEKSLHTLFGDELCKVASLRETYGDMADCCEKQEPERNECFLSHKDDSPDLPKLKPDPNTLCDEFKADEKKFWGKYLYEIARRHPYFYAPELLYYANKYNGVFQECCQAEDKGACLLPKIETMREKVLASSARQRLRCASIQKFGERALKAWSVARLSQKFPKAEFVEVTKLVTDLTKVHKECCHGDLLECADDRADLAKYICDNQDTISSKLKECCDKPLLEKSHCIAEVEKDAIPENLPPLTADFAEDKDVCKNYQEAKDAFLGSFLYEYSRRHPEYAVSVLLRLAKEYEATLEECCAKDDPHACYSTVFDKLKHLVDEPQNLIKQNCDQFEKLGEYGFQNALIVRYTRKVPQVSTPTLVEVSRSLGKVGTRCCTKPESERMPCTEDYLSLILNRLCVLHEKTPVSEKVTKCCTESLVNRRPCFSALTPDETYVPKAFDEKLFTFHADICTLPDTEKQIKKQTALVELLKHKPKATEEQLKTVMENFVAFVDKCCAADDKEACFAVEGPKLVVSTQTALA
In short: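 Bovine serum albumin (fraction V, 1% w/v in phosphate buffer, pH 7.4) mixed with test compound, held 15 min at 37 °C, then heated 10 min at 60 °C. After cooling, turbidity read as absorbance at 660 nm against a DMSO blank.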

[4] = test system: U87 cells; assay: MTT viability assay; assay type: cell-based; details: Homo sapiens, U-87 MG, 48 h
Experimental: (§1) HeLa, MCF-7, U251, U87, MDA-MB-435, and MDA-MB-231 cancer cell lines were maintained in incubators at 37 °C with 5% CO2 in DMEM medium supplemented with 10% (v/v) fetal bovine serum (FBS) and antibiotics/antimycotics. All cell lines used in this study originate from the Laboratory of Biochemistry, Department of Chemistry, Aristotle University of Thessaloniki. They are low-passage, mycoplasma-free cancer cell lines that have been extensively used over the past 25 years in numerous studies across various fields of cancer research, including drug cytotoxicity testing.
(§2) All cell lines tested were seeded in 96-well plates at a concentration of 6 × 10^3 cells per well, except HeLa, which were seeded at 3 × 10^3 cells per well. The day after, cells were exposed to increasing concentrations of the compounds for 48 h. Cell viability was determined using the 3-(4,5-dimethylthiazol-2-yl)-2,5-diphenyltetrazolium bromide (MTT) assay, a colorimetric assessment of cellular metabolic activity as described previously. Absorbance values from treated samples were normalized to those of untreated controls, which were assigned to a 100% viability value.

[5] = test system: MDA-MB-231 cells; assay: MTT viability assay; assay type: cell-based; details: Homo sapiens, 48 h
Experimental: as §1, §2

[6] = test system: U251 cells; assay: MTT viability assay; assay type: cell-based; details: Homo sapiens, U-251, 48 h
Experimental: as §1, §2

[7] = test system: MDA-MB-435 cells; assay: MTT viability assay; assay type: cell-based; details: Homo sapiens, 48 h
Experimental: as §1, §2

[8] = test system: multiple cancer cell lines; assay: MTT viability assay, summary over several lines; assay type: cell-based
Experimental: as §1, §2

SMILES | IC50 [1] | %NO2^− Release mol/mol at 100 μΜ [2] | Albumin (inhibition of albumin denaturation) [3] | EC50 [4] | EC50 [5] | EC50 [6] | EC50 [7] | EC50 ([8]; U251, U87, and MDA-MB-231, read-out: EC50 values in the remaining cell lines) | EC50 ([8]; read-out: EC50 values across multiple cancer cell lines)
C/C(=N\O)c1ccc(NC(=O)COC(=O)/C=C/c2cccs2)cc1 [Compound 6c, 2-((4-((E)-1-(Hydroxyimino)ethyl)phenyl)amino)-2-oxoethyl (E)-3-(thiophen-2-yl)acrylate] | 35 µM | 4% | no |  |  |  |  |  | 
C/C(=N\O)c1ccc(NC(=O)COC(=O)/C(=C/c2cccs2)c2ccccc2)cc1 [Compound 6i, 2-((4-((E)-1-(Hydroxyimino)ethyl)phenyl)amino)-2-oxoethyl (E)-2-phenyl-3-(thiophen-2-yl)acrylate] | 80 µM | no activity and no | no | 45.4 µM | 42.8 µM | 40.9 µM | 52.9 µM | 40.9 to 45.4 µM | 36 to 45 µM
O=C(/C=C/c1cc2ccccc2s1)OCc1c(-c2ccccc2)no[n+]1[O-] [Compound 9e, (E)-3-(((3-(Benzo[b]thiophen-2-yl)acryloyl)oxy)methyl)-4-phenyl-1,2,5-oxadiazole 2-oxide] | 8.25 µM | no | no |  |  |  |  |  | 
